According to BindingDB's records for doi:10.1111/j.1747-0285.2011.01270.x (National Institutes of Health, 2012):

target: T1, Gag-Pol polyprotein [1148-1435] (Human immunodeficiency virus 1, UniProt P04585); test: In Vitro Integrase Assay
T1 construct: 1148-1435
Procedure: The compound were evaluated in biochemical IN (integrase) assay that measure inhibitory potency (IC50 values)against both the 3'-processing(3'P)and strand transfer(ST)reaction.

`Cc1c2c(c(O)c(=O)n1-c1ccccc1)C(=O)N(Cc1ccc(F)c(Cl)c1)C2=O` [Bicyclic hydroxy-1H-pyrrolopyridine-trione, 5b] and `Cc1c2c(c(O)c(=O)n1C)C(=O)N(Cc1ccc(F)c(Cl)c1)C2=O` [Bicyclic hydroxy-1H-pyrrolopyridine-trione, 5a] are within 1.5-fold of each other in IC50: 6.4 µM for the first, 6.7 µM for the second.

`CC(C)Cc1c2c(c(O)c(=O)n1C(C)C)C(=O)N(Cc1ccc(F)c(Cl)c1)C2=O` [Bicyclic hydroxy-1H-pyrrolopyridine-trione, 5c] and `CC(=O)OCc1c2c(c(O)c(=O)n1C(C)C)C(=O)N(Cc1ccc(F)c(Cl)c1)C2=O` [Bicyclic hydroxy-1H-pyrrolopyridine-trione, 5d] are within 1.5-fold of each other in IC50: 21.6 µM for the first, 15.6 µM for the second.

First: O=C1c2c(CO)[nH]c(=O)c(O)c2C(=O)N1Cc1ccc(F)c(Cl)c1 [Bicyclic hydroxy-1H-pyrrolopyridine-trione, 5g]
Second: CC(=O)OCc1[nH]c(=O)c(O)c2c1C(=O)N(Cc1ccc(F)c(Cl)c1)C2=O [Bicyclic hydroxy-1H-pyrrolopyridine-trione, 5f]
The IC50 of the first is 1.9-fold lower: 6.5 µM for the first, 12.3 µM for the second.

With `COC(=O)CCc1c2c(c(O)c(=O)n1C(C)C)C(=O)N(Cc1ccc(F)c(Cl)c1)C2=O` [Bicyclic hydroxy-1H-pyrrolopyridine-trione, 5e] the IC50 was 7.1 µM.
